{
  "source": "the OligoGym collection",
  "note": "Oligonucleotides are given in HELM: sugar(base)linkage, 5' to 3'; d 2'-deoxyribose, r ribose, m 2'-O-methylribose, p phosphate. ss, as = sense and antisense strand; also: test concentration or dose not given here",
  "data": [
    {"target": "Cacnb1 (rat)", "assay": "reporter assay of Huesken 2005", "conditions": "siRNA", "units": {"normalised inhibition (eCFP-eYFP dual reporter)": "%"}, "values": [
      {"substance": "RNA1{r(C)p.r(U)p.r(A)p.r(U)p.r(C)p.r(C)p.r(C)p.r(G)p.r(C)p.r(C)p.r(A)p.r(A)p.r(G)p.r(A)p.r(C)p.r(A)p.r(C)p.r(C)p.r(U)p.d(T)p.d(T)}|RNA2{r(A)p.r(G)p.r(G)p.r(U)p.r(G)p.r(U)p.r(C)p.r(U)p.r(U)p.r(G)p.r(G)p.r(C)p.r(G)p.r(G)p.r(G)p.r(A)p.r(U)p.r(A)p.r(G)p.d(C)p.d(G)}$$$RNA1{StrandType:ss}|RNA2{StrandType:as}$", "normalised inhibition (eCFP-eYFP dual reporter)": 70.7},
      {"substance": "RNA1{r(G)p.r(C)p.r(C)p.r(A)p.r(A)p.r(A)p.r(A)p.r(C)p.r(C)p.r(G)p.r(C)p.r(C)p.r(U)p.r(C)p.r(A)p.r(G)p.r(C)p.r(U)p.r(C)p.d(T)p.d(T)}|RNA2{r(G)p.r(A)p.r(G)p.r(C)p.r(U)p.r(G)p.r(A)p.r(G)p.r(G)p.r(C)p.r(G)p.r(G)p.r(U)p.r(U)p.r(U)p.r(U)p.r(G)p.r(G)p.r(C)p.d(G)p.d(C)}$$$RNA1{StrandType:ss}|RNA2{StrandType:as}$", "normalised inhibition (eCFP-eYFP dual reporter)": 54.1},
      {"substance": "RNA1{r(G)p.r(A)p.r(A)p.r(C)p.r(C)p.r(G)p.r(C)p.r(A)p.r(C)p.r(C)p.r(A)p.r(U)p.r(G)p.r(G)p.r(C)p.r(U)p.r(A)p.r(C)p.r(C)p.d(T)p.d(T)}|RNA2{r(G)p.r(G)p.r(U)p.r(A)p.r(G)p.r(C)p.r(C)p.r(A)p.r(U)p.r(G)p.r(G)p.r(U)p.r(G)p.r(C)p.r(G)p.r(G)p.r(U)p.r(U)p.r(C)p.d(A)p.d(G)}$$$RNA1{StrandType:ss}|RNA2{StrandType:as}$", "normalised inhibition (eCFP-eYFP dual reporter)": 49},
      {"substance": "RNA1{r(C)p.r(G)p.r(A)p.r(A)p.r(A)p.r(C)p.r(U)p.r(C)p.r(U)p.r(G)p.r(U)p.r(C)p.r(U)p.r(A)p.r(C)p.r(A)p.r(C)p.r(G)p.r(G)p.d(T)p.d(T)}|RNA2{r(C)p.r(C)p.r(G)p.r(U)p.r(G)p.r(U)p.r(A)p.r(G)p.r(A)p.r(C)p.r(A)p.r(G)p.r(A)p.r(G)p.r(U)p.r(U)p.r(U)p.r(C)p.r(G)p.d(G)p.d(C)}$$$RNA1{StrandType:ss}|RNA2{StrandType:as}$", "normalised inhibition (eCFP-eYFP dual reporter)": 44},
      {"substance": "RNA1{r(A)p.r(A)p.r(G)p.r(G)p.r(G)p.r(C)p.r(G)p.r(G)p.r(U)p.r(U)p.r(C)p.r(A)p.r(A)p.r(A)p.r(A)p.r(G)p.r(G)p.r(U)p.r(C)p.d(T)p.d(T)}|RNA2{r(G)p.r(A)p.r(C)p.r(C)p.r(U)p.r(U)p.r(U)p.r(U)p.r(G)p.r(A)p.r(A)p.r(C)p.r(C)p.r(G)p.r(C)p.r(C)p.r(C)p.r(U)p.r(U)p.d(T)p.d(C)}$$$RNA1{StrandType:ss}|RNA2{StrandType:as}$", "normalised inhibition (eCFP-eYFP dual reporter)": 57.7},
      {"substance": "RNA1{r(C)p.r(G)p.r(U)p.r(C)p.r(A)p.r(G)p.r(A)p.r(C)p.r(U)p.r(C)p.r(C)p.r(G)p.r(A)p.r(C)p.r(G)p.r(U)p.r(G)p.r(U)p.r(C)p.d(T)p.d(T)}|RNA2{r(G)p.r(A)p.r(C)p.r(A)p.r(C)p.r(G)p.r(U)p.r(C)p.r(G)p.r(G)p.r(A)p.r(G)p.r(U)p.r(C)p.r(U)p.r(G)p.r(A)p.r(C)p.r(G)p.d(G)p.d(C)}$$$RNA1{StrandType:ss}|RNA2{StrandType:as}$", "normalised inhibition (eCFP-eYFP dual reporter)": 77},
      {"substance": "RNA1{r(G)p.r(G)p.r(C)p.r(U)p.r(C)p.r(C)p.r(U)p.r(G)p.r(G)p.r(G)p.r(A)p.r(A)p.r(G)p.r(A)p.r(G)p.r(G)p.r(A)p.r(G)p.r(G)p.d(T)p.d(T)}|RNA2{r(C)p.r(C)p.r(U)p.r(C)p.r(C)p.r(U)p.r(C)p.r(U)p.r(U)p.r(C)p.r(C)p.r(C)p.r(A)p.r(G)p.r(G)p.r(A)p.r(G)p.r(C)p.r(C)p.d(C)p.d(T)}$$$RNA1{StrandType:ss}|RNA2{StrandType:as}$", "normalised inhibition (eCFP-eYFP dual reporter)": 46.7},
      {"substance": "RNA1{r(A)p.r(A)p.r(C)p.r(C)p.r(G)p.r(C)p.r(C)p.r(U)p.r(C)p.r(A)p.r(G)p.r(C)p.r(U)p.r(C)p.r(C)p.r(A)p.r(G)p.r(C)p.r(A)p.d(T)p.d(T)}|RNA2{r(U)p.r(G)p.r(C)p.r(U)p.r(G)p.r(G)p.r(A)p.r(G)p.r(C)p.r(U)p.r(G)p.r(A)p.r(G)p.r(G)p.r(C)p.r(G)p.r(G)p.r(U)p.r(U)p.d(T)p.d(T)}$$$RNA1{StrandType:ss}|RNA2{StrandType:as}$", "normalised inhibition (eCFP-eYFP dual reporter)": 46.2},
      {"substance": "RNA1{r(A)p.r(G)p.r(C)p.r(U)p.r(C)p.r(U)p.r(C)p.r(U)p.r(A)p.r(A)p.r(A)p.r(A)p.r(C)p.r(C)p.r(U)p.r(C)p.r(G)p.r(C)p.r(U)p.d(T)p.d(T)}|RNA2{r(A)p.r(G)p.r(C)p.r(G)p.r(A)p.r(G)p.r(G)p.r(U)p.r(U)p.r(U)p.r(U)p.r(A)p.r(G)p.r(A)p.r(G)p.r(A)p.r(G)p.r(C)p.r(U)p.d(G)p.d(G)}$$$RNA1{StrandType:ss}|RNA2{StrandType:as}$", "normalised inhibition (eCFP-eYFP dual reporter)": 56.1},
      {"substance": "RNA1{r(C)p.r(C)p.r(U)p.r(U)p.r(A)p.r(G)p.r(C)p.r(C)p.r(C)p.r(A)p.r(G)p.r(C)p.r(U)p.r(C)p.r(G)p.r(A)p.r(G)p.r(A)p.r(A)p.d(T)p.d(T)}|RNA2{r(U)p.r(U)p.r(C)p.r(U)p.r(C)p.r(G)p.r(A)p.r(G)p.r(C)p.r(U)p.r(G)p.r(G)p.r(G)p.r(C)p.r(U)p.r(A)p.r(A)p.r(G)p.r(G)p.d(C)p.d(C)}$$$RNA1{StrandType:ss}|RNA2{StrandType:as}$", "normalised inhibition (eCFP-eYFP dual reporter)": 76.8},
      {"substance": "RNA1{r(U)p.r(U)p.r(U)p.r(C)p.r(A)p.r(U)p.r(C)p.r(C)p.r(C)p.r(C)p.r(A)p.r(G)p.r(C)p.r(C)p.r(C)p.r(U)p.r(G)p.r(U)p.r(C)p.d(T)p.d(T)}|RNA2{r(G)p.r(A)p.r(C)p.r(A)p.r(G)p.r(G)p.r(G)p.r(C)p.r(U)p.r(G)p.r(G)p.r(G)p.r(G)p.r(A)p.r(U)p.r(G)p.r(A)p.r(A)p.r(A)p.d(C)p.d(C)}$$$RNA1{StrandType:ss}|RNA2{StrandType:as}$", "normalised inhibition (eCFP-eYFP dual reporter)": 16.4},
      {"substance": "RNA1{r(U)p.r(U)p.r(A)p.r(G)p.r(C)p.r(C)p.r(C)p.r(A)p.r(G)p.r(C)p.r(U)p.r(C)p.r(G)p.r(A)p.r(G)p.r(A)p.r(A)p.r(A)p.r(G)p.d(T)p.d(T)}|RNA2{r(C)p.r(U)p.r(U)p.r(U)p.r(C)p.r(U)p.r(C)p.r(G)p.r(A)p.r(G)p.r(C)p.r(U)p.r(G)p.r(G)p.r(G)p.r(C)p.r(U)p.r(A)p.r(A)p.d(G)p.d(G)}$$$RNA1{StrandType:ss}|RNA2{StrandType:as}$", "normalised inhibition (eCFP-eYFP dual reporter)": 63.7},
      {"substance": "RNA1{r(A)p.r(G)p.r(A)p.r(A)p.r(U)p.r(G)p.r(A)p.r(G)p.r(C)p.r(U)p.r(G)p.r(G)p.r(A)p.r(G)p.r(G)p.r(G)p.r(C)p.r(U)p.r(G)p.d(T)p.d(T)}|RNA2{r(C)p.r(A)p.r(G)p.r(C)p.r(C)p.r(C)p.r(U)p.r(C)p.r(C)p.r(A)p.r(G)p.r(C)p.r(U)p.r(C)p.r(A)p.r(U)p.r(U)p.r(C)p.r(U)p.d(T)p.d(A)}$$$RNA1{StrandType:ss}|RNA2{StrandType:as}$", "normalised inhibition (eCFP-eYFP dual reporter)": 75.3},
      {"substance": "RNA1{r(U)p.r(C)p.r(G)p.r(A)p.r(C)p.r(A)p.r(G)p.r(A)p.r(G)p.r(C)p.r(A)p.r(C)p.r(G)p.r(U)p.r(G)p.r(C)p.r(C)p.r(C)p.r(C)p.d(T)p.d(T)}|RNA2{r(G)p.r(G)p.r(G)p.r(G)p.r(C)p.r(A)p.r(C)p.r(G)p.r(U)p.r(G)p.r(C)p.r(U)p.r(C)p.r(U)p.r(G)p.r(U)p.r(C)p.r(G)p.r(A)p.d(C)p.d(T)}$$$RNA1{StrandType:ss}|RNA2{StrandType:as}$", "normalised inhibition (eCFP-eYFP dual reporter)": 39.9},
      {"substance": "RNA1{r(G)p.r(G)p.r(C)p.r(C)p.r(G)p.r(G)p.r(U)p.r(U)p.r(C)p.r(U)p.r(G)p.r(G)p.r(G)p.r(G)p.r(C)p.r(G)p.r(C)p.r(A)p.r(A)p.d(T)p.d(T)}|RNA2{r(U)p.r(U)p.r(G)p.r(C)p.r(G)p.r(C)p.r(C)p.r(C)p.r(C)p.r(A)p.r(G)p.r(A)p.r(A)p.r(C)p.r(C)p.r(G)p.r(G)p.r(C)p.r(C)p.d(C)p.d(A)}$$$RNA1{StrandType:ss}|RNA2{StrandType:as}$", "normalised inhibition (eCFP-eYFP dual reporter)": 79.6},
      {"substance": "RNA1{r(G)p.r(A)p.r(G)p.r(A)p.r(U)p.r(C)p.r(C)p.r(C)p.r(U)p.r(A)p.r(U)p.r(G)p.r(G)p.r(A)p.r(G)p.r(G)p.r(U)p.r(C)p.r(U)p.d(T)p.d(T)}|RNA2{r(A)p.r(G)p.r(A)p.r(C)p.r(C)p.r(U)p.r(C)p.r(C)p.r(A)p.r(U)p.r(A)p.r(G)p.r(G)p.r(G)p.r(A)p.r(U)p.r(C)p.r(U)p.r(C)p.d(T)p.d(T)}$$$RNA1{StrandType:ss}|RNA2{StrandType:as}$", "normalised inhibition (eCFP-eYFP dual reporter)": 71.5},
      {"substance": "RNA1{r(C)p.r(G)p.r(A)p.r(G)p.r(C)p.r(G)p.r(C)p.r(U)p.r(C)p.r(C)p.r(A)p.r(A)p.r(C)p.r(A)p.r(C)p.r(U)p.r(C)p.r(G)p.r(C)p.d(T)p.d(T)}|RNA2{r(G)p.r(C)p.r(G)p.r(A)p.r(G)p.r(U)p.r(G)p.r(U)p.r(U)p.r(G)p.r(G)p.r(A)p.r(G)p.r(C)p.r(G)p.r(C)p.r(U)p.r(C)p.r(G)p.d(A)p.d(T)}$$$RNA1{StrandType:ss}|RNA2{StrandType:as}$", "normalised inhibition (eCFP-eYFP dual reporter)": 15.2},
      {"substance": "RNA1{r(G)p.r(C)p.r(C)p.r(C)p.r(A)p.r(C)p.r(A)p.r(G)p.r(G)p.r(G)p.r(C)p.r(A)p.r(A)p.r(A)p.r(U)p.r(A)p.r(C)p.r(A)p.r(G)p.d(T)p.d(T)}|RNA2{r(C)p.r(U)p.r(G)p.r(U)p.r(A)p.r(U)p.r(U)p.r(U)p.r(G)p.r(C)p.r(C)p.r(C)p.r(U)p.r(G)p.r(U)p.r(G)p.r(G)p.r(G)p.r(C)p.d(T)p.d(G)}$$$RNA1{StrandType:ss}|RNA2{StrandType:as}$", "normalised inhibition (eCFP-eYFP dual reporter)": 75.8},
      {"substance": "RNA1{r(C)p.r(U)p.r(G)p.r(G)p.r(U)p.r(G)p.r(G)p.r(A)p.r(U)p.r(C)p.r(G)p.r(G)p.r(G)p.r(A)p.r(G)p.r(G)p.r(C)p.r(U)p.r(G)p.d(T)p.d(T)}|RNA2{r(C)p.r(A)p.r(G)p.r(C)p.r(C)p.r(U)p.r(C)p.r(C)p.r(C)p.r(G)p.r(A)p.r(U)p.r(C)p.r(C)p.r(A)p.r(C)p.r(C)p.r(A)p.r(G)p.d(T)p.d(C)}$$$RNA1{StrandType:ss}|RNA2{StrandType:as}$", "normalised inhibition (eCFP-eYFP dual reporter)": 40.7},
      {"substance": "RNA1{r(U)p.r(C)p.r(C)p.r(U)p.r(G)p.r(C)p.r(A)p.r(C)p.r(A)p.r(U)p.r(C)p.r(A)p.r(A)p.r(G)p.r(G)p.r(A)p.r(G)p.r(A)p.r(A)p.d(T)p.d(T)}|RNA2{r(U)p.r(U)p.r(C)p.r(U)p.r(C)p.r(C)p.r(U)p.r(U)p.r(G)p.r(A)p.r(U)p.r(G)p.r(U)p.r(G)p.r(C)p.r(A)p.r(G)p.r(G)p.r(A)p.d(A)p.d(G)}$$$RNA1{StrandType:ss}|RNA2{StrandType:as}$", "normalised inhibition (eCFP-eYFP dual reporter)": 94}
    ]}
  ]
}
